Measured values as given in PMC10155203 (Molecular Pharmaceutics, 2023).
Converted amounts (≈) assume the structure as drawn. Where two headings read alike, the source gives them in different places.

Assays:
[1] = PBPK modeling in GastroPlus 9.8 (model parameters and predicted absorption); design: species or system human; conditions: estimated; increased from GastroPlus default value
Method: Simulations were performed using the commercially available PBPK modeling platform GastroPlus 9.8 (Simulations Plus, Inc., Lancaster, CA). Input and final parameters for the model were published by Del Frari et al.[29] […] The fasted, fed, and PPI states were predicted for the encorafenib commercial capsule. All input data for the platform are shown in Table 2 and were based on physicochemical properties of the compound, formulation characteristics and absorption, distribution, metabolism, and excretion properties. […] Related to dissolution, the Johnson model was selected. This model is an extension of the Nernst–Brunner dissolution model and accounts for changing particle radius during dissolution as well as for dissolution of cylindrical particles. […] Gathered information concerning physicochemical and biopharmaceutical properties was obtained in-house. Fasted state physiology in the human GI tract was simulated by selecting the fluid volumes as observed by the magnetic resonance imaging study of Mudie et al.[30] to address biorelevant fluid volumes in the different GI compartments. In the case of the fed state, the stomach transit time was adjusted and optimized to a value of 2.25 h for consistency with the observed PK data, and the physiology was adjusted to fed state conditions (default settings). […]

[2] = human plasma; cited from earlier work
[3] = tested on: CYP2D6; conditions: cited from earlier work
[4] = Physicochemical and biopharmaceutical properties obtained in-house (PBPK input, experimental data)
Method: Simulations were performed using the commercially available PBPK modeling platform GastroPlus 9.8 (Simulations Plus, Inc., Lancaster, CA). Input and final parameters for the model were published by Del Frari et al.[29] […] The fasted, fed, and PPI states were predicted for the encorafenib commercial capsule. All input data for the platform are shown in Table 2 and were based on physicochemical properties of the compound, formulation characteristics and absorption, distribution, metabolism, and excretion properties. […] Related to dissolution, the Johnson model was selected. This model is an extension of the Nernst–Brunner dissolution model and accounts for changing particle radius during dissolution as well as for dissolution of cylindrical particles. […] Gathered information concerning physicochemical and biopharmaceutical properties was obtained in-house. Fasted state physiology in the human GI tract was simulated by selecting the fluid volumes as observed by the magnetic resonance imaging study of Mudie et al.[30] to address biorelevant fluid volumes in the different GI compartments. In the case of the fed state, the stomach transit time was adjusted and optimized to a value of 2.25 h for consistency with the observed PK data, and the physiology was adjusted to fed state conditions (default settings). To simulate PPI conditions, the fasted state physiology was selected (magnetic resonance imaging fluid volumes). However, gastric pH was set to a constant value of pH 7 during the simulation instead of the normal gastric pH of 1.3, as used in the fasted state default settings. […] However, the same results were observed even when the gastric pH was adjusted to a value of 4 or 5 (data not shown).[31] Distribution and clearance parameters were adjusted to reflect a 2-compartmental approach based on the average PK profile of the 100 mg dose as administered in the fasted state to healthy participants (average weight, 83 kg).

[5] = tested on: CYP2C19; design: method as in PMID 27693678; conditions: fitted using in vivo data; cited from earlier work
[6] = Study 2: PPI (rabeprazole) interaction clinical study, single oral dose of encorafenib, plasma PK and safety; type: in vivo, human; conditions: for Tmax: median (range); for Vd/F: read-out: Vz/F; for CL/F: mean ± SD
Method: Both studies were conducted at the Celerion Clinical Research Unit in Lincoln, NE. The trial protocols and informed consent documentation were reviewed and approved by the institutional review boards at the center. These studies were conducted in compliance with the ethical principles originating in or derived from the Declaration of Helsinki and in compliance with all International Council for Harmonization Good Clinical Practice Guideline.
The AEs described were consistent with the known safety profile of encorafenib.
Additionally, participants were instructed not to crush, split, or chew the study drug. […]
The actual sample collection times were used for the PK parameter analysis.
The overall safety profile was characterized by laboratory test abnormalities, physical examination, vital signs, ECGs, and AEs. […] Triplicate ECGs were also measured at the end of the studies or upon early termination.
These were back-transformed to obtain the GMRs and corresponding 90% CIs on the original scale. The ratios were expressed as a percentage relative to the reference treatment.

[7] = study 2, encorafenib 100 mg + rabeprazole
[8] = study 2, encorafenib 100 mg + rabeprazole vs alone
[9] = study 2, encorafenib 100 mg alone
[10] = study 2, encorafenib 300 mg alone

mean precipitation time [1]: 90000 s | BCS class behavior ([4]; amorphous drug in the capsule formulation (amorphous solid dispersion)): class 1 | solubility ([4]; aqueous buffer, at pH 6.8, experimental data, read-out: reference solubility (amorphous)): 200 µg/mL (≈ 370 µM) | amorphous solubility higher than crystalline solubility ([4]; at pH 6.8): 20 fold | logD ([4]; at pH 6.8, experimental data): 1.8 | solubility ([4]; at pH 6.8, experimental data, read-out: reference solubility (crystalline)): 10 µg/mL (≈ 18.5 µM) | Biopharmaceutics Classification System (BCS) class ([4]; drug substance): class 2 | logP ([4]; experimental data): 2.59 | particle radius ([4]; experimental data, PBPK input): 5 μm | pKa ([4]; experimental data, read-out: pKa (acid)): 6.97 | pKa ([4]; experimental data, read-out: pKa (base)): 4.53
Structure (SMILES): COC(=O)N[C@@H](C)CNc1nccc(-c2cn(C(C)C)nc2-c2cc(Cl)cc(NS(C)(=O)=O)c2F)n1 [encorafenib, Encorafenib]
in vitro protein binding [2]: 86% | share of metabolism by CYP2D6 [3]: 1% | gut CYP2C19 Km [5]: 7.51 mg/L | gut CYP2C19 Vmax [5]: 0.00504 mg/s | liver CYP2C19 Km [5]: 7.51 mg/L | liver CYP2C19 Vmax [5]: 0.00504 mg/s | tolerability ([6]; 300 mg dose compared with 100 mg dose, healthy participants): tolerated with more difficulty | AUC(0-inf) ([6]; human, plasma, oral, 100 mg): 4140 ng·h/mL | AUC(0-t) ([6]; human, plasma, oral, 100 mg): 4120 ng·h/mL | Cmax ([6]; human, plasma, oral, 100 mg): 1040 ng/mL | Tmax ([6]; human, plasma, oral, 100 mg, study 2, encorafenib 100 mg alone, read-out: Tmax): 1.5 h | Vd/F ([6]; human, plasma, oral, 100 mg): 247 ± 208 L | half-life ([6]; human, plasma, oral, 100 mg, read-out: t1/2 (converted)): 7.53 ± 7.58 h | AUC(0-inf) ([6]; human, plasma, oral, 300 mg): 14800 ng·h/mL | AUC(0-t) ([6]; human, plasma, oral, 300 mg): 14700 ng·h/mL | Cmax ([6]; human, plasma, oral, 300 mg): 3900 ng/mL | Tmax ([6]; human, plasma, oral, 300 mg, study 2, encorafenib 300 mg alone, read-out: Tmax): 1.5 h | Vd/F ([6]; human, plasma, oral, 300 mg): 470 ± 339 L | half-life ([6]; human, plasma, oral, 300 mg, read-out: t½ (converted)): 15.9 ± 11.6 h | Tmax ([6]; human, plasma, oral, study 2, encorafenib 100 mg + rabeprazole, read-out: Tmax): 2 h | changes in vital signs, laboratory values, or ECG measurements ([6]; study 2): No clinically significant changes | participants reporting feeling hot ([6]; study 2): 53% | participants reporting flushing ([6]; study 2): 80% | participants reporting headache ([6]; study 2): 93% | number of AEs of grade 2/moderate severity ([6]; study 2 (headache, nausea, myalgia)): 3 AEs | participants reporting AEs [6, 7]: 82% | mean change in AUCinf with PPI coadministration [6, 8]: < 10% | mean change in AUClast with PPI coadministration [6, 8]: < 10% | mean change in Cmax with PPI coadministration [6, 8]: < 10% | number of AEs reported ([6]; study 2, encorafenib 100 mg + rabeprazole, 11 participants): 23 AEs | CL/F [6, 7]: 26.31 ± 9.1417 L/h | participants reporting AEs [6, 9]: 90% | number of AEs reported ([6]; study 2, encorafenib 100 mg alone, 10 participants): 24 AEs | CL/F [6, 9]: 25.33 ± 8.0601 L/h | Tmax [6, 9]: 1.503 (1.01, 2.00) h | participants reporting AEs [6, 10]: 100% | number of AEs reported ([6]; study 2, encorafenib 300 mg alone, 15 participants): 106 AEs | CL/F [6, 10]: 20.59 ± 3.9043 L/h | participants who discontinued due to an AE ([6]; study 2, of 15 participants): 1 participants | participants reporting AEs ([6]; study 2, overall): 15 of 15
